# Test results: PubChem BioAssay (NCI)
#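 How tested: cells in 96-well plates exposed to compound for 48 hours at five concentrations. TGI marks complete inhibition of growth.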
# How the values were obtained:
# Test in all cases: NCI anticancer screen, dose series, 48 h
# A498 renal = tested on: A498 renal
# A549 NSCLC = tested on: A549 NSCLC
# ACHN renal = tested on: ACHN renal
# BT-549 breast = tested on: BT-549 breast
# CAKI-1 renal = tested on: CAKI-1 renal
# CCRF-CEM leukemia = tested on: CCRF-CEM leukemia
# COLO 205 colon = tested on: COLO 205 colon
# DU-145 prostate = tested on: DU-145 prostate
# EKVX NSCLC = tested on: EKVX NSCLC
# HCC-2998 colon = tested on: HCC-2998 colon
# HCT-116 colon = tested on: HCT-116 colon
# HCT-15 colon = tested on: HCT-15 colon
# HL-60(TB) leukemia = tested on: HL-60(TB) leukemia
# HOP-62 NSCLC = tested on: HOP-62 NSCLC
# HS 578T breast = tested on: HS 578T breast
# HT29 colon = tested on: HT29 colon
# IGROV1 ovarian = tested on: IGROV1 ovarian
# K-562 leukemia = tested on: K-562 leukemia
# KM12 colon = tested on: KM12 colon
# LOX IMVI melanoma = tested on: LOX IMVI melanoma
# M14 melanoma = tested on: M14 melanoma
# MALME-3M melanoma = tested on: MALME-3M melanoma
# MCF7 breast = tested on: MCF7 breast
# MDA-MB-231 breast = tested on: MDA-MB-231 breast
# MDA-MB-435 = tested on: MDA-MB-435
# MDA-N = tested on: MDA-N
# MOLT-4 leukemia = tested on: MOLT-4 leukemia
# NCI-H23 lung = tested on: NCI-H23 lung
# NCI-H460 lung = tested on: NCI-H460 lung
# NCI-H522 lung = tested on: NCI-H522 lung
# NCI/ADR-RES ovarian = tested on: NCI/ADR-RES ovarian
# OVCAR-3 ovarian = tested on: OVCAR-3 ovarian
# OVCAR-4 ovarian = tested on: OVCAR-4 ovarian
# OVCAR-5 ovarian = tested on: OVCAR-5 ovarian
# OVCAR-8 ovarian = tested on: OVCAR-8 ovarian
# PC-3 prostate = tested on: PC-3 prostate
# RPMI-8226 leukemia = tested on: RPMI-8226 leukemia
# RXF 393 renal = tested on: RXF 393 renal
# SF-295 CNS = tested on: SF-295 CNS
# SF-539 CNS = tested on: SF-539 CNS
# SK-MEL-2 melanoma = tested on: SK-MEL-2 melanoma
# SK-MEL-28 melanoma = tested on: SK-MEL-28 melanoma
# SK-MEL-5 melanoma = tested on: SK-MEL-5 melanoma
# SK-OV-3 ovarian = tested on: SK-OV-3 ovarian
# SN12C renal = tested on: SN12C renal
# SNB-19 CNS = tested on: SNB-19 CNS
# SNB-75 CNS = tested on: SNB-75 CNS
# T-47D breast = tested on: T-47D breast
# TK-10 renal = tested on: TK-10 renal
# U251 CNS = tested on: U251 CNS
# UACC-257 melanoma = tested on: UACC-257 melanoma
# UACC-62 melanoma = tested on: UACC-62 melanoma
# UO-31 renal = tested on: UO-31 renal
# 786-0 renal = tested on: 786-0 renal
# HOP-92 NSCLC = tested on: HOP-92 NSCLC
# NCI-H226 lung = tested on: NCI-H226 lung
# SF-268 CNS = tested on: SF-268 CNS
# SW-620 colon = tested on: SW-620 colon
smiles,measurement,setting,value
COc1ccnc2c1C(=O)c1nc3ccccc3c3ccnc-2c13,TGI,A498 renal,0.0803 µM
same,TGI,A549 NSCLC,2.02 µM
same,TGI,ACHN renal,0.41 µM
same,TGI,BT-549 breast,1.44 µM
same,TGI,CAKI-1 renal,0.6 µM
same,TGI,CCRF-CEM leukemia,1.35 µM
same,TGI,COLO 205 colon,0.723 µM
same,TGI,DU-145 prostate,0.31 µM
same,TGI,EKVX NSCLC,2.62 µM
same,TGI,HCC-2998 colon,1.52 µM
same,TGI,HCT-116 colon,1.03 µM
same,TGI,HCT-15 colon,0.145 µM
same,TGI,HL-60(TB) leukemia,0.29 µM
same,TGI,HOP-62 NSCLC,5.34 µM
same,TGI,HS 578T breast,6.44 µM
same,TGI,HT29 colon,0.89 µM
same,TGI,IGROV1 ovarian,0.704 µM
same,TGI,K-562 leukemia,0.653 µM
same,TGI,KM12 colon,0.588 µM
same,TGI,LOX IMVI melanoma,5.47 µM
same,TGI,M14 melanoma,0.272 µM
same,TGI,MALME-3M melanoma,1.3 µM
same,TGI,MCF7 breast,0.298 µM
same,TGI,MDA-MB-231 breast,3.87 µM
same,TGI,MDA-MB-435,1.52 µM
same,TGI,MDA-N,0.904 µM
same,TGI,MOLT-4 leukemia,7.32 µM
same,TGI,NCI-H23 lung,1.37 µM
same,TGI,NCI-H460 lung,0.139 µM
same,TGI,NCI-H522 lung,0.262 µM
same,TGI,NCI/ADR-RES ovarian,0.147 µM
same,TGI,OVCAR-3 ovarian,> 100 µM
same,TGI,OVCAR-4 ovarian,2.65 µM
same,TGI,OVCAR-5 ovarian,2.73 µM
same,TGI,OVCAR-8 ovarian,0.224 µM
same,TGI,PC-3 prostate,1.81 µM
same,TGI,RPMI-8226 leukemia,0.526 µM
same,TGI,RXF 393 renal,0.86 µM
same,TGI,SF-295 CNS,1.15 µM
same,TGI,SF-539 CNS,33.7 µM
same,TGI,SK-MEL-2 melanoma,4.11 µM
same,TGI,SK-MEL-28 melanoma,7.37 µM
same,TGI,SK-MEL-5 melanoma,0.437 µM
same,TGI,SK-OV-3 ovarian,0.645 µM
same,TGI,SN12C renal,0.535 µM
same,TGI,SNB-19 CNS,0.562 µM
same,TGI,SNB-75 CNS,0.589 µM
same,TGI,T-47D breast,1.34 µM
same,TGI,TK-10 renal,1.13 µM
same,TGI,U251 CNS,0.61 µM
same,TGI,UACC-257 melanoma,0.536 µM
same,TGI,UACC-62 melanoma,0.504 µM
same,TGI,UO-31 renal,0.894 µM
CC1=CC(C2/C(=N/O)C=C(C)CC2(C)C)C(O)C(C)(C)C1 (centres undefined),TGI,786-0 renal,31.8 µM
same,TGI,A498 renal,33.3 µM
same,TGI,A549 NSCLC,29.6 µM
same,TGI,ACHN renal,34 µM
same,TGI,BT-549 breast,32.8 µM
same,TGI,CAKI-1 renal,28.2 µM
same,TGI,CCRF-CEM leukemia,60.4 µM
same,TGI,COLO 205 colon,36 µM
same,TGI,DU-145 prostate,29.1 µM
same,TGI,EKVX NSCLC,31.4 µM
same,TGI,HCC-2998 colon,30 µM
same,TGI,HCT-116 colon,29.3 µM
same,TGI,HCT-15 colon,33.6 µM
same,TGI,HL-60(TB) leukemia,37.2 µM
same,TGI,HOP-62 NSCLC,29.5 µM
same,TGI,HOP-92 NSCLC,27.5 µM
same,TGI,HS 578T breast,> 100 µM
same,TGI,HT29 colon,29.3 µM
same,TGI,IGROV1 ovarian,32.6 µM
same,TGI,K-562 leukemia,32.1 µM
same,TGI,KM12 colon,31.6 µM
same,TGI,LOX IMVI melanoma,32.3 µM
same,TGI,M14 melanoma,28.9 µM
same,TGI,MCF7 breast,30.4 µM
same,TGI,MDA-MB-231 breast,31.6 µM
same,TGI,MDA-MB-435,31.2 µM
same,TGI,MDA-N,31.9 µM
same,TGI,MOLT-4 leukemia,31.3 µM
same,TGI,NCI-H226 lung,33.7 µM
same,TGI,NCI-H23 lung,32.8 µM
same,TGI,NCI-H460 lung,43.1 µM
same,TGI,NCI/ADR-RES ovarian,33.5 µM
same,TGI,OVCAR-3 ovarian,23.3 µM
same,TGI,OVCAR-4 ovarian,29.8 µM
same,TGI,OVCAR-5 ovarian,34.8 µM
same,TGI,OVCAR-8 ovarian,33.8 µM
same,TGI,PC-3 prostate,29.8 µM
same,TGI,RPMI-8226 leukemia,33.6 µM
same,TGI,RXF 393 renal,30 µM
same,TGI,SF-268 CNS,37.1 µM
same,TGI,SF-295 CNS,32.9 µM
same,TGI,SF-539 CNS,41.7 µM
same,TGI,SK-MEL-2 melanoma,30.6 µM
same,TGI,SK-MEL-28 melanoma,30.9 µM
same,TGI,SK-MEL-5 melanoma,29.5 µM
same,TGI,SK-OV-3 ovarian,38.1 µM
same,TGI,SN12C renal,33.3 µM
same,TGI,SNB-19 CNS,29.5 µM
same,TGI,SNB-75 CNS,29.2 µM
same,TGI,SW-620 colon,41.8 µM
same,TGI,T-47D breast,28.1 µM
same,TGI,TK-10 renal,35.2 µM
same,TGI,U251 CNS,29.6 µM
same,TGI,UACC-257 melanoma,30.1 µM
same,TGI,UACC-62 melanoma,29.4 µM
same,TGI,UO-31 renal,29 µM
